For 26 compounds, TGI and GI50 results are on record in PubChem BioAssay (NCI).

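Interpolation was linear, between the two tested concentrations surrounding the appropriate level; five concentrations were tested over 48 hours in 96-well plates. Here, GI50 denotes the concentration required for 50% inhibition of growth. At the TGI there is no net growth.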

The first test has as its system UACC-62 melanoma. Description: DTP human tumour cell line panel, 48 h.
For `Cc1ccc2c(c1C)CC1(Cc3c(C)ccc(C)c3C1=O)C2=O` (configuration not stated), the total growth inhibition concentration (TGI) was greater than 100 µM.
On to `O=CN1CCN(C(=O)c2ccco2)C1=S`, for which the total growth inhibition concentration (TGI) turned out to be 20.7 µM.
With `O=C1/C(=C/c2ccc(Cl)cc2)CCCc2ccc(F)cc21`, the GI50 is 16.1 µM and the concentration for total growth inhibition (TGI) amounted to 47 µM.
The compound `CC(=O)C1(O)CCC2(O)C3(O)CC=C4CC(O)CCC4(C)C3CC(OC(=O)c3ccc(O)cc3)C12C` (configuration not stated) had a concentration for total growth inhibition (TGI) greater than 100 µM.
With `O=C1/C(=C/c2ccncc2)C(n2cccc2)c2c(Br)sc(Br)c21` (configuration not stated), the concentration for total growth inhibition (TGI) is 7.5 µM.
Take `COCC#C[C@@]1(O)CCCCC1CC(OC)OC` (some centres not stated): the TGI was greater than 100 µM.
`C=C1CC(COc2ccc3c(C)c(C)c(=O)oc3c2C)(c2ccccc2)OC1=O` (configuration not stated) displayed a TGI of 3.42 µM.
Same read-out and setting: as for `CC(=O)OCC(=O)O[C@@H]1[C@H]2[C@@H](OC(=O)c3ccccc3)[C@@H](C)C[C@]2(O)[C@H](OC(C)=O)[C@@]2(C)C[C@]1(OC(C)=O)C[C@H]1C(=O)C(C)(C)[C@@H](OC(C)=O)[C@@H]12`, the figure is greater than 25 µM.
As to `O=C(Sc1c(-c2ccccc2)c(=O)n(-c2ccccc2)c(=S)n1-c1ccccc1)c1ccco1`, the TGI was greater than 100 µM.
Same read-out and setting: as for `Cn1nc2c(c1N)Cc1c(nn(C)c1N)-c1ccccc1-2`, the figure is greater than 100 µM.
Compound `Cc1nnc2n1-c1ccccc1N(Cc1ccccc1)CC2` gave a TGI greater than 100 µM.
Take `O=C(/C=C\Nc1ccccc1O)C(F)(F)F`: the total growth inhibition concentration (TGI) is greater than 100 µM.
With `CC1(C)OC[C@@H](C[C@H](O)COCc2ccccc2)O1`, the TGI was greater than 100 µM.
`NC(N)=NS(=O)(=O)c1ccc(NC(=O)c2cccc3c(NNc4ccc(S(N)(=O)=O)cc4)c4ccccc4nc23)cc1` displayed a TGI greater than 100 µM.
Same read-out and setting: the figure for `Nc1nncc2[nH]cnc12` is greater than 100 µM; for `O=[N+]([O-])/C(Cl)=C(/C(Cl)=C(Cl)Cl)N1CCCCC1` it is 17.1 µM.
In the case of `Nc1c(S(N)(=O)=O)cc(S(N)(=O)=O)cc1S(N)(=O)=O`, the TGI is greater than 100 µM.
`CCCCCCc1cc2cc(-c3csc(-c4ccc(OC)cc4)n3)c(=O)oc2cc1O` returned a TGI of 24.6 µM.
On the same count and under the same terms, the figure for `COc1ccc(C2=C(Cl)C(=O)O/C2=C\c2ccc(OC)c(Br)c2)cc1Cl` is 74.9 µM.
For `CNC(=S)NNc1ncnc2c1c(-c1ccc(Cl)cc1)cn2-c1ccc(C)cc1`, the TGI was found to be 40.7 µM.
As for `Clc1cc(C(c2cc(Cl)sc2Cl)c2cc(Cl)sc2Cl)c(Cl)s1`, the TGI is greater than 100 µM.
Compound `COc1cc(OC)cc(Oc2nc3cc(F)c(F)cc3nc2-c2ccccc2)c1` showed a total growth inhibition concentration (TGI) greater than 100 µM.
On to `C[N+]1(CCN=C=NC2CCCCC2)CCOCC1`, for which the TGI was greater than 100 µM.
Take `Cc1cc(S(=O)(=O)Nc2n[nH]c(Nc3ccccc3)n2)c(SCC(=O)O)cc1Cl`: the TGI was greater than 100 µM.
In turn, `COc1cc2c3c(cc(Cl)nc3c1OC)C(=O)C(=O)N2` displayed a concentration for total growth inhibition (TGI) of 18.1 µM.
For the compound `CCCCCCCCCCCCOCCOCCOCCOCCOCCOCC(=O)NC(Cc1ccccc1)C(=O)Oc1ccc([N+](=O)[O-])cc1` (configuration not stated), the concentration for total growth inhibition (TGI) came out at 56.4 µM.

A further test deals with MOLT-4 leukemia. Description: DTP human tumour cell line panel, 48 h.
In the case of `Cc1ccc2c(c1C)CC1(Cc3c(C)ccc(C)c3C1=O)C2=O` (configuration not stated), the concentration for total growth inhibition (TGI) is greater than 100 µM.
Turning to `O=CN1CCN(C(=O)c2ccco2)C1=S`, the TGI was determined as 35 µM.
In the case of `O=C1/C(=C/c2ccc(Cl)cc2)CCCc2ccc(F)cc21`, the GI50 was 12.1 µM and the total growth inhibition concentration (TGI) is greater than 100 µM.
Take `CC(=O)C1(O)CCC2(O)C3(O)CC=C4CC(O)CCC4(C)C3CC(OC(=O)c3ccc(O)cc3)C12C` (configuration not stated): the TGI is greater than 100 µM.
Turning to `O=C1/C(=C/c2ccncc2)C(n2cccc2)c2c(Br)sc(Br)c21` (configuration not stated), the concentration for total growth inhibition (TGI) stood at 4.64 µM.
With `COCC#C[C@@]1(O)CCCCC1CC(OC)OC` (some centres not stated), the total growth inhibition concentration (TGI) is greater than 100 µM.
The same measure, in the same setting: as for `C=C1CC(COc2ccc3c(C)c(C)c(=O)oc3c2C)(c2ccccc2)OC1=O` (configuration not stated), the figure is 3.05 µM; as for `CC(=O)OCC(=O)O[C@@H]1[C@H]2[C@@H](OC(=O)c3ccccc3)[C@@H](C)C[C@]2(O)[C@H](OC(C)=O)[C@@]2(C)C[C@]1(OC(C)=O)C[C@H]1C(=O)C(C)(C)[C@@H](OC(C)=O)[C@@H]12`, greater than 25 µM; as for `O=C(Sc1c(-c2ccccc2)c(=O)n(-c2ccccc2)c(=S)n1-c1ccccc1)c1ccco1`, greater than 100 µM.
Consider `Cn1nc2c(c1N)Cc1c(nn(C)c1N)-c1ccccc1-2`, for which the TGI is greater than 100 µM.
Still for that read-out and setting: as for `Cc1nnc2n1-c1ccccc1N(Cc1ccccc1)CC2`, the figure is 89.5 µM; as for `O=C(/C=C\Nc1ccccc1O)C(F)(F)F`, greater than 100 µM.
The compound `CC1(C)OC[C@@H](C[C@H](O)COCc2ccccc2)O1` gave a TGI greater than 100 µM.
In the case of `NC(N)=NS(=O)(=O)c1ccc(NC(=O)c2cccc3c(NNc4ccc(S(N)(=O)=O)cc4)c4ccccc4nc23)cc1`, the total growth inhibition concentration (TGI) stood at 74.1 µM.
`Nc1nncc2[nH]cnc12` returned a TGI greater than 45.3 µM.
`O=[N+]([O-])/C(Cl)=C(/C(Cl)=C(Cl)Cl)N1CCCCC1` yielded a total growth inhibition concentration (TGI) of 11.7 µM.
Regarding `Nc1c(S(N)(=O)=O)cc(S(N)(=O)=O)cc1S(N)(=O)=O`, the TGI was greater than 100 µM.
For `CCCCCCc1cc2cc(-c3csc(-c4ccc(OC)cc4)n3)c(=O)oc2cc1O`, the TGI was greater than 100 µM.
For the compound `COc1ccc(C2=C(Cl)C(=O)O/C2=C\c2ccc(OC)c(Br)c2)cc1Cl`, the TGI was greater than 100 µM.
`CNC(=S)NNc1ncnc2c1c(-c1ccc(Cl)cc1)cn2-c1ccc(C)cc1` yielded a TGI greater than 100 µM.
As to `Clc1cc(C(c2cc(Cl)sc2Cl)c2cc(Cl)sc2Cl)c(Cl)s1`, the TGI is greater than 100 µM.
On the same count and under the same terms, the figure for `COc1cc(OC)cc(Oc2nc3cc(F)c(F)cc3nc2-c2ccccc2)c1` is greater than 100 µM.
On to `C[N+]1(CCN=C=NC2CCCCC2)CCOCC1`, for which the total growth inhibition concentration (TGI) was greater than 100 µM.
Same read-out and setting: the figure for `Cc1cc(S(=O)(=O)Nc2n[nH]c(Nc3ccccc3)n2)c(SCC(=O)O)cc1Cl` is greater than 100 µM; for `COc1cc2c3c(cc(Cl)nc3c1OC)C(=O)C(=O)N2` it is greater than 31.2 µM.
For `CCCCCCCCCCCCOCCOCCOCCOCCOCCOCC(=O)NC(Cc1ccccc1)C(=O)Oc1ccc([N+](=O)[O-])cc1` (configuration not stated), the TGI turned out to be 74.8 µM.

The next test concerns CAKI-1 renal. The test can be described thus: DTP human tumour cell line panel, 48 h.
On to `Cc1ccc2c(c1C)CC1(Cc3c(C)ccc(C)c3C1=O)C2=O` (configuration not stated), for which the total growth inhibition concentration (TGI) is greater than 100 µM.
`O=CN1CCN(C(=O)c2ccco2)C1=S` gave a TGI of 18.5 µM.
Regarding `O=C1/C(=C/c2ccc(Cl)cc2)CCCc2ccc(F)cc21`, the GI50 was 22.5 µM and the TGI came out at 64.5 µM.
In the case of `CC(=O)C1(O)CCC2(O)C3(O)CC=C4CC(O)CCC4(C)C3CC(OC(=O)c3ccc(O)cc3)C12C` (configuration not stated), the TGI was greater than 100 µM.
With `O=C1/C(=C/c2ccncc2)C(n2cccc2)c2c(Br)sc(Br)c21` (configuration not stated), the TGI was found to be 10.9 µM.
`COCC#C[C@@]1(O)CCCCC1CC(OC)OC` (some centres not stated) returned a TGI greater than 100 µM.
For the compound `C=C1CC(COc2ccc3c(C)c(C)c(=O)oc3c2C)(c2ccccc2)OC1=O` (configuration not stated), the TGI came out at 3.33 µM.
As for `CC(=O)OCC(=O)O[C@@H]1[C@H]2[C@@H](OC(=O)c3ccccc3)[C@@H](C)C[C@]2(O)[C@H](OC(C)=O)[C@@]2(C)C[C@]1(OC(C)=O)C[C@H]1C(=O)C(C)(C)[C@@H](OC(C)=O)[C@@H]12`, the TGI is greater than 25 µM.
For `O=C(Sc1c(-c2ccccc2)c(=O)n(-c2ccccc2)c(=S)n1-c1ccccc1)c1ccco1`, the TGI was greater than 100 µM.
The same measure, in the same setting: as for `Cn1nc2c(c1N)Cc1c(nn(C)c1N)-c1ccccc1-2`, the figure is greater than 100 µM; as for `Cc1nnc2n1-c1ccccc1N(Cc1ccccc1)CC2`, greater than 100 µM; as for `O=C(/C=C\Nc1ccccc1O)C(F)(F)F`, greater than 100 µM.
